The results in this text go back to patent US11498920B2, “4-(1H-imidazol-5-yl)-1H-pyrrolo[2, 3-b] pyridines for use in the treatment of leukaemias, lymphomas and solid tumors” (MASARYKOVA UNIVERZITA, priority 2018, dated 2022).

Assay [1] deals with primary CLL cells. In words: Cytotoxicity, TMRE flow cytometry viability, primary CLL cells (Example II.1). The format is cell-based. As to conditions: Homo sapiens, CLL cell, 6 hours, TMRE positive cells normalized to control, ratio to PF670462, <1 = higher cytotoxicity than PF670462, read-out: Viability of cells, Compound of formula I (100 μM), relative to PF670462 (100 μM), CLL primary cells. As for the experimental part: (§1) The leukemia and lymphoma-derived cell lines [MEC-1 cell line (derived from chronic lymphocytic leukemia—CLL), Nalm-16 (acute lymphocytic leukemia—ALL), K562 (chronic myeloid leukemia—CML), HL-60 (acute myeloid leukemia—AML), Maver-1 and Mino (mantle cell lymphoma—MCL), BL-41 (Burkitt lymphoma—BL), WSU-NHL (follicular lymphoma—FL), SUDHL (diffuse large B-cell lymphoma—DLBCL)], primary CLL cells and nonmalignant control primary cells were cultured in suspension in flasks under the following conditions: RPMI 1640 medium (Hyclone) supplemented with 10% fetal bovine serum (FBS, Gibco) and 1% penicillin/streptomycin (Life Technologies), 37° C., 5% CO2 and 95% relative humidity, with optimal culture cell density 5×10^6 cells/mL in case of primary cells and 0.5-1×10^6 cells/mL in case of cell lines. The adherent cell lines [A375 (derived from malignant melanoma), MDA-MB-231 and MCF-7 (breast cancer), MIA-PA-CA and PANC1 (pancreatic cancer), PC3 (prostate cancer), OVCAR4 (ovarian cancer) and HEPG2 (hepatocellular carcinoma)] were cultured on plates under the same conditions using RPMI1640 or DMEM medium (Gibco) according to instructions provided by the distributor (DSMZ/ATCC).
(§2) Cytotoxicity of compounds of formula I was tested in two models representative for leukemia (primary CLL cells) and lymphoma (Maver-1 cells). The primary CLL cells and Maver-1 cells (MCL-derived) were incubated with inhibitors at 100 μM concentration or corresponding amount of solvent (DMSO, Sigma Aldrich) as 0.1×10^6 cells/200 μl per well in a 96-well plate. Experiments were performed in technical duplicates. Viability of cells was assessed after 6 hours in case of primary CLL cells and after 24 hours in case of Maver-1 cells.
(§3) Apoptosis-induced reduction of mitochondrial potential is detected as lower TMRE fluorescence. […] Relative values are presented, showing ratio to the effect of PF670462 (as the closest prior art). Relative value <1 indicates a higher cytotoxicity than PF670462.

In assay [2] the test system is Maver-1 cells (mantle cell lymphoma). As to the kind of experiment: Cytotoxicity, TMRE flow cytometry viability, Maver-1 cells (Example II.1). The format is cell-based. As to conditions: Homo sapiens, Maver1, 24 hours, TMRE positive cells normalized to control, ratio to PF670462, <1 = higher cytotoxicity than PF670462, read-out: Viability of cells, Compound of formula I (100 μM), relative to PF670462 (100 μM), Maver-1 cells (mantle cell lymphoma). The method, then: as §1, §2, §3

Molecules are shown by their SMILES.

Take `Fc1ccc(-c2ncn(C3CCCCC3)c2-c2ccnc3[nH]ccc23)c(F)c1` [Preparative Example 4, 4-(1-cyclohexyl-4-(2,4-difluorophenyl)-1H-imidazol-5-yl)-1H-pyrrolo[2,3-b]pyridine]: the viability at 100 µM in assay [1] and in assay [2] was 21% throughout.
In the case of `Clc1cccc(-c2ncn(C3CCCCC3)c2-c2ccnc3[nH]ccc23)c1` [Preparative Example 5, 4-(4-(3-chlorophenyl)-1-cyclohexyl-1H-imidazol-5-yl)-1H-pyrrolo[2,3-b]pyridine], the viability at 100 µM is 24% in assay [1] and 54% in assay [2].
`Brc1cccc(-c2ncn(C3CCCCC3)c2-c2ccnc3[nH]ccc23)c1` [Preparative Example 6, 4-(4-(3-bromophenyl)-1-cyclohexyl-1H-imidazol-5-yl)-1H-pyrrolo[2,3-b]pyridine]: the viability at 100 µM in assay [1] came to 37%; in assay [2], 42%.
In the case of `Clc1ccc(-c2ncn(C3CCCCC3)c2-c2ccnc3[nH]ccc23)c(Cl)c1` [Preparative Example 7], the results for the viability at 100 µM in assay [1] and in assay [2] were 34% and 84%, respectively.
For `c1ccc(-c2ncn(C3CCCCC3)c2-c2ccnc3[nH]ccc23)cc1` [Preparative Example 8] the same measures were 32% and 4%.
For `Clc1ccc(-c2ncn(C3CCCCC3)c2-c2ccnc3[nH]ccc23)cc1` [Preparative Example 9, 4-(4-(4-chlorophenyl)-1-cyclohexyl-1H-imidazol-5-yl)-1H-pyrrolo[2,3-b]pyridine] the same measures were 50% and 30%.
Take `Brc1ccc(-c2ncn(C3CCCCC3)c2-c2ccnc3[nH]ccc23)cc1` [Preparative Example 10, 4-(4-(4-bromophenyl)-1-cyclohexyl-1H-imidazol-5-yl)-1H-pyrrolo[2,3-b]pyridine]: the viability at 100 µM came to 61% in assay [1] and 46% in assay [2].
For `CC(C)(C)OC(=O)N1CCC(n2cnc(-c3ccc(F)cc3)c2-c2ccnc3[nH]ccc23)CC1` [Preparative Example 11, tert-butyl-4-(4-(4-fluorophenyl)-5-(1H-pyrrolo[2,3-b]pyridin-4-yl)-1H-imidazol-1-yl)piperidine-1-carboxylate], the viability at 100 µM came to 30% in assay [1] and 6% in assay [2].
The matching figures for `CN1CCC(n2cnc(-c3ccc(F)cc3)c2-c2ccnc3[nH]ccc23)CC1` [Preparative Example 14, 4-(4-(4-fluorophenyl)-1-(1-methylpiperidin-4-yl)-1H-imidazol-5-yl)-1H-pyrrolo[2,3-b]pyridine]: 77% and 70%.
Take `Fc1ccc(-c2ncn(C3CCCCCC3)c2-c2ccnc3[nH]ccc23)cc1` [Preparative Example 19, 4-(1-cycloheptyl-4-(4-fluorophenyl)-1H-imidazol-5-yl)-1H-pyrrolo[2,3-b]pyridine]: the viability at 100 µM in assay [1] was 22%; in assay [2] it was 33%.
`Fc1ccc(-c2ncn(Cc3ccccc3)c2-c2ccnc3[nH]ccc23)cc1` [Preparative Example 22, 4-(1-benzyl-4-(4-fluorophenyl)-1H-imidazol-5-yl)-1H-pyrrolo[2,3-b]pyridine]: the viability at 100 µM was determined as 17% in assay [1] and 27% in assay [2].
For the compound `CC1(C)CC(Cn2cnc(-c3ccc(F)cc3)c2-c2ccnc3[nH]ccc23)C1` [Preparative Example 29, 4-(1-((3,3-dimethylcyclobutyl)methyl)-4-(4-fluorophenyl)-1H-imidazol-5-yl)-1H-pyrrolo[2,3-b]pyridine], the viability at 100 µM in assay [1] turned out to be 21%; in assay [2], 3%.
For the compound `COC(=O)[C@H]1CC[C@@H](n2cnc(-c3ccc(F)cc3)c2-c2ccnc3[nH]ccc23)CC1` [Preparative Example 33, Methyl cis-4-(4-(4-fluorophenyl)-5-(1H-pyrrolo[2,3-b]pyridin-4-yl)-1H-imidazol-1-yl)cyclohexane-1-carboxylate], the results for the viability at 100 µM in assay [1] and in assay [2] were 63% and 12%, respectively.
`COC(=O)[C@H]1CC[C@H](n2cnc(-c3ccc(F)cc3)c2-c2ccnc3[nH]ccc23)CC1` [Preparative Example 34, Methyl trans-4-(4-(4-fluorophenyl)-5-(1H-pyrrolo[2,3-b]pyridin-4-yl)-1H-imidazol-1-yl)cyclohexane-1-carboxylate]: the viability at 100 µM was 55% in assay [1] and 89% in assay [2].
For `Fc1ccc(-c2ncn(C3CCC(F)(F)CC3)c2-c2ccnc3[nH]ccc23)cc1` [Preparative Example 35, 4-(1-(4,4-difluorocyclohexyl)-4-(4-fluorophenyl)-1H-imidazol-5-yl)-1H-pyrrolo[2,3-b]pyridine] the same measures were 60% and 44%.
In the case of `Fc1ccc(-c2ncn([C@H]3CC[C@H](C(F)(F)F)CC3)c2-c2ccnc3[nH]ccc23)cc1` [Preparative Example 36], the results for the viability at 100 µM in assay [1] and in assay [2] were 68% and 1%, respectively.
Consider `c1cc(-c2c(-c3ccsc3)ncn2C2CCCCC2)c2cc[nH]c2n1` [Preparative Example 42, 4-(1-cyclohexyl-4-(thiophen-3-yl)-1H-imidazol-5-yl)-1H-pyrrolo[2,3-b]pyridine], for which the values for the viability at 100 µM in assay [1] and in assay [2] were 76% and 12%, respectively.
For `Fc1ccc(-c2ncn(-c3cccnc3)c2-c2ccnc3[nH]ccc23)cc1` [Preparative Example 50, 4-(4-(4-fluorophenyl)-1-(pyridin-3-yl)-1H-imidazol-5-yl)-1H-pyrrolo[2,3-b]pyridine] the same measures were 63% and 48%.
The matching figures for `OCc1cc2c(-c3c(-c4ccc(F)cc4)ncn3C3CCCCC3)ccnc2[nH]1` [Preparative Example 56, (4-(1-cyclohexyl-4-(4-fluorophenyl)-1H-imidazol-5-yl)-1H-pyrrolo[2,3-b]pyridin-2-yl)methanol]: 67% and 79%.
`COCc1cc2c(-c3c(-c4ccc(F)cc4)ncn3C3CCCCC3)ccnc2[nH]1` [Preparative Example 60, 4-(1-cyclohexyl-4-(4-fluorophenyl)-1H-imidazol-5-yl)-2-(methoxymethyl)-1H-pyrrolo[2,3-b]pyridine]: the viability at 100 µM amounted to 93% in assay [1] and 84% in assay [2].
As for `CS(=O)(=O)N1CCC(n2cnc(-c3ccc(F)cc3)c2-c2ccnc3[nH]ccc23)CC1` [Preparative Example 69], the viability at 100 µM in assay [1] came to 84%; in assay [2], 85%.
In the case of `CCOC(=O)N1CCC(n2cnc(-c3ccc(F)cc3)c2-c2ccnc3[nH]ccc23)CC1` [Preparative Example 70, Ethyl 4-(4-(4-fluorophenyl)-5-(1H-pyrrolo[2,3-b]pyridin-4-yl)-1H-imidazol-1-yl)piperidine-1-carboxylate], the viability at 100 µM in assay [1] stood at 72%; in assay [2], 11%.
The matching figures for `CNC(=O)N1CCC(n2cnc(-c3ccc(F)cc3)c2-c2ccnc3[nH]ccc23)CC1` [Preparative Example 71, 4-(4-(4-fluorophenyl)-5-(1H-pyrrolo[2,3-b]pyridin-4-yl)-1H-imidazol-1-yl)-N-methylpiperidine-1-carboxamide]: 87% and 87%.
For the compound `CC(=O)N[C@H]1CC[C@@H](n2cnc(-c3ccc(F)cc3)c2-c2ccnc3[nH]ccc23)CC1` [Preparative Example 75, N-(cis-4-(4-(4-fluorophenyl)-5-(1H-pyrrolo[2,3-b]pyridin-4-yl)-1H-imidazol-1-yl)cyclohexyl)acetamide], the viability at 100 µM in assay [1] came out at 83%; in assay [2], 66%.
For the compound `Fc1ccc(-c2ncn(CCCOC(F)(F)F)c2-c2ccnc3[nH]ccc23)cc1` [Preparative Example 80], the viability at 100 µM in assay [1] came out at 49%; in assay [2], 42%.
Take `Fc1ccc(-c2ncn(Cc3cccs3)c2-c2ccnc3[nH]ccc23)cc1` [Preparative Example 84, 4-(4-(4-fluorophenyl)-1-(thiophen-2-ylmethyl)-1H-imidazol-5-yl)-1H-pyrrolo[2,3-b]pyridine]: the results for the viability at 100 µM in assay [1] and in assay [2] were 48% and 8%, respectively.
Regarding `Fc1ccc(-c2ncn(Cc3ccc(OC(F)(F)F)cc3)c2-c2ccnc3[nH]ccc23)cc1` [Preparative Example 85], the viability at 100 µM was 1% in assay [1] and 4% in assay [2].
